Patent US20130184222A1, “[…] ACTIVE COMPOSITIONS AND THEIR METHODS OF USE” (AGIOS PHARMACEUTICALS, INC, priority 2010, published 2013)

Columns and labels:
IDH1 R132H = IDH1 R132H (Homo sapiens, UniProt O75874, R132H); assay: In vitro assay for IDH1 R132H inhibitors (NADPH/aKG, resazurin detection); type: biochemical; conditions: Table 4B; 0.2 μg/ml IDH1 R132H, 50 minutes at room temperature; read-out: IC50, IDH1 R132H Inhibition
Summary of the method: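 Buffer: 150 mM NaCl, 10 mM MgCl2, 20 mM Tris pH 7.5, 0.03% BSA. Compound was added to substrate mix (8 uM NADPH, 2 mM aKG), then enzyme mix (0.2 μg/ml IDH1 R132H), and incubated 50 min at room temperature. Remaining NADPH was read by resazurin (30 μM in detection mix) to resorufin fluorescence after 5 min, Ex544/Em590.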

U87MG cells = assay: Cellular assay: inhibition of 2-HG production in U87MG cells (LC-MS, 48 hours); type: cell-based; conditions: Homo sapiens, U-87 MG, 2-HG in media by LC-MS
Procedure: Cells (HT1080 or U87MG) were grown in T125 flasks in DMEM containing 10% FBS, 1× penicillin/streptomycin and 500 ug/mL G418 (present in U87MG cells only). They were harvested by trypsin and seeded into 96 well white bottom plates at a density of 5000 cell/well in 100 ul/well in DMEM with 10% FBS. No cells were placed in columns 1 and 12. Cells were incubated overnight at 37° C. in 5% CO2. The next day test compounds were made up at 2× the final concentration and 100 ul were added to each cell well. The final concentration of DMSO was 0.2% and the DMSO control wells were plated in row G. The plates were then placed in the incubator for 48 hours. At 48 hours, 100 ul of media was removed from each well and analyzed by LC-MS for 2-HG concentrations. The cell plate was placed back in the incubator for another 24 hours. At 72 hours post compound addition, 10 mL/plate of Promega Cell Titer Glo reagent was thawed and mixed. The cell plate was removed from the incubator and allowed to equilibrate to room temperature. Then 100 ul of Promega Cell Titer Glo reagent was added to each well of media. The cell plate was then placed on an orbital shaker for 10 minutes and then allowed to sit at room temperature for 20 minutes. The plate was then read for luminescence with an integration time of 500 ms.

Sequence of IDH1 R132H (O75874 whole entry R132H): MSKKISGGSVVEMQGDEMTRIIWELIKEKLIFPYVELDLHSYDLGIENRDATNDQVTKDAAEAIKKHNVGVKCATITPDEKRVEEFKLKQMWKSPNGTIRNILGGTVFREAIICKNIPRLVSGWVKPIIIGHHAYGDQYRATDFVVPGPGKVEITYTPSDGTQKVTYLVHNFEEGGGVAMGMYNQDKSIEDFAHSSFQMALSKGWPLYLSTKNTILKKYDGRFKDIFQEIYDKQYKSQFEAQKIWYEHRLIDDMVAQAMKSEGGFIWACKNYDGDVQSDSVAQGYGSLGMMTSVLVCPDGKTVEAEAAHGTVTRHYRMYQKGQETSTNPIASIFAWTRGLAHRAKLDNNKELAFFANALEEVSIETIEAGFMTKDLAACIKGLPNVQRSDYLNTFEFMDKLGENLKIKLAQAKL

Structure (SMILES) | IC50 (IDH1 R132H) [nM] | IC50 (U87MG cells) [nM]
Cc1ccccc1C(C(=O)NC1CCCCC1)N(C(=O)Cc1c[nH]c2ccccc12)c1cccc(F)c1 (centres unmarked) [Compound 126] | ≤ 100 | ≤ 250
Cc1ccccc1C(C(=O)NC1CCCCC1)N(C(=O)Cn1cnc2ccccc21)c1cccc(F)c1 (centres unmarked) [Compound 135] | ≤ 100 | 250 to 1000
Cc1ccccc1C(C(=O)NC1CCCCC1)N(C(=O)Cn1nnc2ccccc21)c1cccc(F)c1 (centres unmarked) [Compound 151] | 100 to 1000 | 
Cc1ccccc1C(C(=O)NC1CCCCC1)N(C(=O)CNCc1ccccc1)c1cccc(F)c1 (centres unmarked) [Compound 152] | 100 to 1000 | 
Cc1ccccc1C(C(=O)NC1CCCCC1)N(C(=O)CN1CCc2ccccc21)c1cccc(F)c1 (centres unmarked) [Compound 153] | 100 to 1000 | 
Cc1ccccc1C(C(=O)NC1CCCCC1)N(C(=O)CNCCc1ccccc1)c1cccc(F)c1 (centres unmarked) [Compound 154] | 100 to 1000 | 1000 to 5000
Cc1ccccc1C(C(=O)NC1CCCCC1)N(C(=O)CNc1ccccc1)c1cccc(F)c1 (centres unmarked) [Compound 155] | ≤ 100 | 
Cc1ccccc1C(C(=O)NC1CCCCC1)N(C(=O)Cn1ccnc1)c1cccc(F)c1 (centres unmarked) [Compound 156] | 100 to 1000 | 
Cc1ccccc1C(C(=O)NC1CCCCC1)N(Cc1cccs1)C(=O)Cn1nnc2ccccc21 (centres unmarked) [Compound 157] | 100 to 1000 | 
Cc1ccccc1C(C(=O)NC1CCCCC1)N(C(=O)Cc1cscn1)c1cccc(F)c1 (centres unmarked) [Compound 158] | 100 to 1000 | 250 to 1000
Cc1ccccc1C(C(=O)NC1CCOCC1)N(C(=O)Cc1cccs1)c1cccc(F)c1 (centres unmarked) [Compound 159] | 100 to 1000 | 
Cc1ccccc1C(C(=O)NC1CCCCC1)N(C(=O)CN(C)c1ccccc1)c1cccc(F)c1 (centres unmarked) [Compound 161] | ≤ 100 | 250 to 1000
Cc1ccccc1C(C(=O)NC1CCCCC1)N(C(=O)CSC(=N)N)c1cccc(F)c1 (centres unmarked) [Compound 163] | 100 to 1000 | > 5000
Cc1ccccc1C(C(=O)Nc1ccccc1Br)N(C(=O)Cc1cccs1)c1cccc(F)c1 (centres unmarked) [Compound 164] | 100 to 1000 | 
Cc1ccccc1C(C(=O)NC1CCCCC1)N(Cc1cccs1)C(=O)CN1CCCc2ccccc21 (centres unmarked) [Compound 168] | 1000 to 10000 | 
Cc1ccccc1C(C(=O)NC1CCCCC1)N(Cc1cccs1)C(=O)CNCc1ccncc1 (centres unmarked) [Compound 169] | 100 to 1000 | 
Cc1ccccc1C(C(=O)NC1CCCCC1)N(C(=O)CNC1COC1)c1cccc(F)c1 (centres unmarked) [Compound 170] | 100 to 1000 | 1000 to 5000
Cc1ccccc1C(C(=O)NC1CCCCC1)N(C(=O)CNCc1cccnc1)c1cccc(F)c1 (centres unmarked) [Compound 174] | 100 to 1000 | 1000 to 5000
Cc1ccccc1C(C(=O)NC1CCC1)N(C(=O)Cc1cccs1)c1cccc(F)c1 (centres unmarked) [Compound 178] | 100 to 1000 | 250 to 1000
Cc1ccccc1C(C(=O)NC1CCOCC1)N(C(=O)CN1CCCc2ccccc21)c1cccc(F)c1 (centres unmarked) [Compound 179] | 100 to 1000 | 1000 to 5000
Cc1ccccc1C(C(=O)NC1CCCCC1)N(C(=O)CNC1CCCCC1O)c1cccc(F)c1 (centres unmarked) [Compound 180] | 100 to 1000 | 1000 to 5000
Cc1ccccc1C(C(=O)NC1CCCCC1)N(C(=O)CNC1CCOCC1)c1cccc(F)c1 (centres unmarked) [Compound 181] | 100 to 1000 | 1000 to 5000
Cc1ccccc1C(C(=O)NC1CCCCC1)N(Cc1cccs1)C(=O)CN(C)c1ccccc1 (centres unmarked) [Compound 182] | 100 to 1000 | 1000 to 5000
Cc1ccccc1C(C(=O)NC1CCOCC1)N(C(=O)CN(C)c1ccccc1)c1cccc(F)c1 (centres unmarked) [Compound 183] | 100 to 1000 | 1000 to 5000
Cc1ccccc1C(C(=O)NC1CC2CCC1C2)N(C(=O)Cc1cccs1)c1cccc(F)c1 (centres unmarked) [Compound 186] | ≤ 100 | 250 to 1000
Cc1ccccc1C(C(=O)NC1CCCCC1)N(Cc1cccs1)C(=O)CN1Cc2ccccc2C1 (centres unmarked) [Compound 187] | 100 to 1000 | 1000 to 5000
Cc1ccccc1C(C(=O)NC1CCCCC1)N(C(=O)CN1Cc2ccccc2C1)c1cccc(F)c1 (centres unmarked) [Compound 188] | 100 to 1000 | 250 to 1000

Structure (SMILES) | IC50 (IDH1 R132H) [nM] | IC50 (U87MG cells) [nM]
Cc1ccccc1C(C(=O)NC1CCCCC1)N(C(=O)Cc1ccc(OC(=O)N2CCN(C)CC2)cc1)c1cccc(F)c1 (centres unmarked) [Compound 277] | 1000 to 10000 | 
O=C(NC1CCCCC1)C(c1ccccc1F)N(C(=O)CNCc1ccncc1)c1cccc(F)c1 (centres unmarked) [Compound 323] | 100 to 1000 | 
Cc1ccccc1C(C(=O)NC1CCCCC1)N(C(=O)Cn1ccnn1)c1cccc(F)c1 (centres unmarked) [Compound 329] | 100 to 1000 | 
Cc1ccccc1[C@@H](C(=O)NC1CCCCC1)N(C(=O)[C@H]1CCCCN1)c1cccc(F)c1 [Compound 337] | 100 to 1000 | 
Cc1ccccc1[C@@H](C(=O)NC1CCCCC1)N(C(=O)[C@@H]1CCCN1C(=O)OC(C)(C)C)c1cccc(F)c1 [Compound 343] | 100 to 1000 | 
CCOC(=O)N1CCCC[C@H]1C(=O)N(c1cccc(F)c1)[C@H](C(=O)NC1CCCCC1)c1ccccc1C [Compound 348] | ≤ 100 | 
Cc1ccccc1[C@@H](C(=O)NC1CCCCC1)N(C(=O)[C@@H]1CCCCN1S(C)(=O)=O)c1cccc(F)c1 [Compound 349] | 100 to 1000 | 
Cc1ccccc1C(C(=O)NC1CCCCC1)N(C(=O)CNC(=O)OC(C)(C)C)c1ccccc1F (centres unmarked) [Compound 352] | 100 to 1000 | 
COC(=O)NCC(=O)N(c1ccc(F)cc1)C(C(=O)NC1CCCCC1)c1ccccc1C (centres unmarked) [Compound 353] | 100 to 1000 | 
COC(=O)N1CCC[C@@H]1C(=O)N(c1cccc(F)c1)[C@H](C(=O)NC1CCCCC1)c1ccccc1C [Compound 355] | 100 to 1000 | 
COC(=O)NCC(=O)N(c1ccc(F)c(F)c1)C(C(=O)NC1CCCCC1)c1ccccc1C (centres unmarked) [Compound 358] | 100 to 1000 | 
CCOC(=O)N1CCC[C@@H]1C(=O)N(c1cccc(F)c1)[C@H](C(=O)NC1CCCCC1)c1ccccc1C [Compound 360] | 100 to 1000 | 
Cc1ccccc1[C@@H](C(=O)NC1CCCCC1)N(C(=O)[C@@H]1CCCN1S(C)(=O)=O)c1cccc(F)c1 [Compound 362] | 100 to 1000 | 
CNC(=O)N1CCCC[C@@H]1C(=O)N(c1cccc(F)c1)[C@H](C(=O)NC1CCCCC1)c1ccccc1C [Compound 364] | 100 to 1000 | 
Cc1ccccc1[C@@H](C(=O)NC1CCCCC1)N(C(=O)[C@H]1CCCCN1C(=O)N(C)C)c1cccc(F)c1 [Compound 365] | 100 to 1000 | 
Cc1ccccc1C(C(=O)NC1CCCCC1)N(C(=O)CNC(=O)OC(C)(C)C)c1cccc(F)c1 (centres unmarked) [Compound 368] | 100 to 1000 | 
Cc1ccccc1C(C(=O)NC1CCCCC1)N(C(=O)CCNC(=O)OC(C)(C)C)c1cccc(F)c1 (centres unmarked) [Compound 369] | 100 to 1000 | 
CC(=O)N1CCC[C@@H]1C(=O)N(c1cccc(F)c1)[C@H](C(=O)NC1CCCCC1)c1ccccc1C [Compound 371] | 100 to 1000 | 
COC(=O)NCC(=O)N(Cc1cccs1)C(C(=O)NC1CCCCC1)c1ccccc1C (centres unmarked) [Compound 372] | 100 to 1000 | 
CNC(=O)N1CCC[C@@H]1C(=O)N(c1cccc(F)c1)[C@H](C(=O)NC1CCCCC1)c1ccccc1C [Compound 375] | 100 to 1000 | 
Cc1ccccc1[C@@H](C(=O)NC1CCCCC1)N(C(=O)[C@H]1CCCN1)c1cccc(F)c1 [Compound 376] | 100 to 1000 | 
O=C(NC1CCCCC1)C(c1ccccc1Cl)N(C(=O)c1cc2ccccc2[nH]1)c1cccc(F)c1 (centres unmarked) [Compound 382] | 100 to 1000 | 
O=C(NC1CCCCC1)C(c1ccccc1Cl)N(C(=O)Cn1cnc(Cl)c1Cl)c1cccc(F)c1 (centres unmarked) [Compound 383] | ≤ 100 | 
N#Cc1ncn(CC(=O)N(c2cccc(F)c2)C(C(=O)NC2CCCCC2)c2ccccc2Cl)c1C#N (centres unmarked) [Compound 384] | 100 to 1000 | 
COC(=O)N1CCOC[C@H]1C(=O)N(c1cccc(F)c1)[C@H](C(=O)NC1CCCCC1)c1ccccc1C [Compound 385] | ≤ 100 | 
Cc1ccccc1C(C(=O)NC1CCCCC1)N(C(=O)OCc1ccccc1)c1ccccc1 (centres unmarked) [Compound 391] | 100 to 1000 | 
Cc1ccccc1C(C(=O)NC1CCCCC1)N(C(=O)Oc1ccccc1)c1ccccc1 (centres unmarked) [Compound 392] | 100 to 1000 | 
